Data on eight molecules can be found in publication PMC6270106, “Chemical Constituents from the Leaves of Annona reticulata and Their Inhibitory Effects on NO Production” (Molecules, 2013).

In data set [1] the test system is LPS-induced iNOS-dependent NO production in RAW 264.7 cells. Put plainly: Inhibition of LPS-induced iNOS-dependent NO production (Griess nitrite assay). As to conditions: RAW 264.7, 100 ng/mL LPS, 24 h; for NO level: nitrite by Griess, in µM (unit assumed); for inhibition at 12.5 µM / inhibition at 25 µM / inhibition at 50 µM / IC50 / inhibition at 100 µM: Mus musculus, RAW264.7; for inhibition at 12.5 µM: read-out: NO inhibition (% of control); for inhibition at 25 µM / inhibition at 50 µM / inhibition at 100 µM: read-out: NO inhibition (% of control) (converted). It counts as cell-based, murine. From the text: The isolated compounds 1–9 were subjected into the examination of their effects on LPS-induced iNOS-dependent NO production in RAW 264.7 cells. […] The inhibitory effects of 1, 4 and 9 were less obvious. […] Among the tested compounds, 2, and 5–8 belonged to the ent-kaurane diterpenoids noted for the occurrence in the Annona species.
NO production was indirectly assessed by measuring the nitrite levels in the cultured media and serum determined by a colorimetric method based on the Griess reaction. The cells were incubated with a test sample in the presence of LPS (100 ng/mL) at 37 °C for 24 h. Then, cells were dispensed into 96-well plates, and 100 μL of each supernatant was mixed with the same volume of Griess reagent (1% sulfanilamide, 0.1% naphthyl ethylenediamine dihydrochloride, and 5% phosphoric acid) and incubated at room temperature for 10 min, the absorbance was measured at 540 nm with a Micro-Reader (Molecular Devices). By using sodium nitrite to generate a standard curve, the concentration of nitrite was measured form absorbance at 540 nm.
Experimental results were presented as the mean ± standard deviation (SD) of three parallel measurements. Statistical comparisons were made by Student’s t-test. IC50 values were estimated using a non-linear regression algorithm (SigmaPlot 8.0; SPSS Inc. Chicago, IL, USA). Statistical significance is expressed as * p < 0.05, ** p < 0.01, and *** p < 0.001.

Data set [2] deals with RAW 264.7 cells.
Protocol: (§1) A murine macrophage cell line RAW264.7 (BCRC No. 60001) was purchased from the Bioresources Collection and Research Center (BCRC) of the Food Industry Research and Development Institute (Hsinchu, Taiwan). Cells were cultured in plastic dishes containing Dulbecco’s Modified Eagle Medium (DMEM, Sigma, St. Louis, MO, USA) supplemented with 10% fetal bovine serum (FBS, Sigma, USA) in a CO2 incubator (5% CO2 in air) at 37°C and subcultured every 3 days at a dilution of 1:5 using 0.05% trypsin–0.02% EDTA in Ca^2+-, Mg^2+- free phosphate-buffered saline (DPBS).
(§2) Cells (2 × 10^5) were cultured in 96-well plate containing DMEM supplemented with 10% FBS for 1 day to become nearly confluent. Then cells were cultured with samples in the presence of 100 ng/mL LPS for 24 h. After that, the cells were washed twice with DPBS and incubated with 100 μL of 0.5 mg/mL MTT for 2 h at 37 °C testing for cell viability. The medium was then discarded and 100 μL dimethyl sulfoxide (DMSO) was added. After 30-min incubation, absorbance at 570 nm was read using a microplate reader (Molecular Devices, Sunnyvale, CA, USA).
The subject of data set [3] is LPS-induced RAW264.7 macrophages. The arrangement: method as in PMID 21211951. The following applies: cited from earlier work.
Data set [4] deals with RAW 264.7 cells. Description: Cell viability (MTT) in the presence of LPS. The following applies: RAW 264.7, 100 ng/mL LPS, 24 h; for Cell viability (% of control): MTT; for Cell toxicity (in words): 12.5–100 μM.
Protocol: as §1, §2
Another data set has as its system platelet aggregation. The arrangement: method as in PMID 12398544. As to conditions: isolated from the stems of A. squamosa; cited from earlier work.

Like-named read-outs stand apart in the source and are kept apart here.

With `C=C(C)C(CC[C@@H](CO)[C@H]1CC[C@@]2(C)C3CCC4C(C)(C)[C@@H](O)[C@H](O)C[C@@]45C[C@@]35CC[C@]12C)C(C)C` (some centres unmarked) [Compound 1, annonaretin A], the NO level in data set [1] (12.5 μM) is on record as 36.6 ± 1.9; in data set [1] (25 μM), 33.5 ± 0.9. For the same molecule, the inhibition at 12.5 µM in data set [1] (12.5 μM) worked out at 19.3 ± 4.2%. Further, in data set [1] (25 μM), the inhibition at 25 µM is 26.2%. Further, the “Inhibitory effect on NO production (in words)” value in data set [1] was “less obvious”. For the same molecule, the “Cell viability (% of control)” value in the data set with RAW 264.7 cells [2] (12.5 µM) is recorded as 88.0 ± 1.5 % of control; in the data set on RAW 264.7 cells [2] (25 µM), 81.2 ± 1.8 % of control; in the data set with RAW 264.7 cells [2] (50 µM) it was 73.0 ± 3.6 % of control; in the data set on RAW 264.7 cells [2] (100 µM), 66.9 ± 5.5 % of control.
In the case of `C=C1C[C@@]23CC[C@H]4[C@@](C)(CCC[C@@]4(C)C(=O)O)[C@@H]2CC[C@@H]1C3` [Compound 2, kaurenoic acid], the “Inhibition of NO production, prostaglandin E2 release, cyclooxygenase-2 and inducible nitric oxide synthase expression (in words)” value in data set [3] is recorded as “inhibit NO production”. For the same molecule, the NO level is listed as 34.3 ± 4.7 in data set [1] (12.5 μM), 35.1 ± 1.2 in data set [1] (25 μM) and 22.7 ± 0.5 in data set [1] (50 μM). Besides, in data set [1] (12.5 μM), the inhibition at 12.5 µM amounted to 24.5 ± 10.2%. Moreover, in data set [1] (25 μM), the inhibition at 25 µM is 22.7%. Besides, in data set [1] (50 μM), the inhibition at 50 µM was 50%. In data set [1], this molecule showed an IC50 of 50 ± 0.3 µM. Besides, the “Cell viability (% of control)” value with RAW 264.7 cells [4] (12.5 μM) is on record as 98.0 ± 2.2 % of control; with RAW 264.7 cells [4] (25 μM), 91.0 ± 3.6 % of control; in the data set on RAW 264.7 cells [4] (50 μM), 82.9 ± 1.2 % of control; in the data set on RAW 264.7 cells [4] (100 μM) it was 65.7 ± 8.6 % of control. For the same molecule, the “Cell toxicity (in words)” value in the data set with RAW 264.7 cells [4] is “Some cell toxicity was observed”.
As to `CC[C@H](CC[C@@H](C)[C@H]1CC[C@H]2[C@@H]3CC=C4C[C@@H](O)CC[C@]4(C)[C@H]3CC[C@]12C)C(C)C` [Compound 4, β-sitosterol], the NO level in data set [1] (12.5 μM) was 38.4 ± 0.7; in data set [1] (25 μM), 38.6 ± 3.3. Also, the inhibition at 12.5 µM in data set [1] (12.5 μM) stood at 15.5 ± 1.5%. For the same molecule, the inhibition at 25 µM in data set [1] (25 μM) is 15.1%. Besides, the “Inhibitory effect on NO production (in words)” value in data set [1] is “less obvious”. The “Cell viability (% of control)” value in the data set on RAW 264.7 cells [4] (12.5 μM) was 82.8 ± 2.7 % of control; in the data set with RAW 264.7 cells [4] (25 μM), 80.7 ± 3.8 % of control; in the data set on RAW 264.7 cells [4] (50 μM), 65.3 ± 2.3 % of control; in the data set on RAW 264.7 cells [4] (100 μM), 55.8 ± 2.7 % of control. Moreover, in the data set with RAW 264.7 cells [4], the “Cell toxicity (in words)” value is “Some cell toxicity was observed”.
With `C[C@@]12CCC[C@](C)(C=O)C1CCC13CC(CCC12)C(C(=O)O)C3` (stereo partly drawn) [Compound 5, 16α-hydro-19-al-ent-kauran-17-oic acid], the NO level turned out to be 38.3 ± 1.3 in data set [1] (12.5 μM), 33.1 ± 1.0 in data set [1] (25 μM), 22.1 ± 1.5 in data set [1] (50 μM) and 14.8 ± 0.7 in data set [1] (100 μM). Besides, in data set [1] (12.5 μM), the inhibition at 12.5 µM was 15.5 ± 2.8%. Besides, the inhibition at 25 µM in data set [1] (25 μM) is 27.1%. For the same molecule, the inhibition at 50 µM in data set [1] (50 μM) is 51.4%. For the same molecule, in data set [1] (100 μM), the inhibition at 100 µM was 67.3%. The molecule also had an IC50 in data set [1] of 48.6 ± 1.2 µM. Moreover, the “Anti-platelet aggregation activity (in words)” value in the data set with platelet aggregation was “exhibit anti-platelet aggregation activity”. For the same molecule, the “Cell viability (% of control)” value is 98.9 ± 5.2 % of control in the data set on RAW 264.7 cells [4] (12.5 μM), 96.5 ± 9.2 % of control in the data set on RAW 264.7 cells [4] (25 μM), 95.9 ± 8.6 % of control in the data set with RAW 264.7 cells [4] (50 μM) and 80.2 ± 5.7 % of control with RAW 264.7 cells [4] (100 μM).
In the case of `CC[C@H](CC[C@@H](C)[C@H]1CC[C@H]2[C@@H]3C[C@@H](O)C4=CC(=O)CC[C@]4(C)[C@H]3CC[C@]12C)C(C)C` [Compound 6, 6β-hydroxystigmast-4-en-3-one], the NO level in data set [1] (12.5 μM) was 37.0 ± 1.8; in data set [1] (25 μM) it was 33.1 ± 2.4; in data set [1] (50 μM), 22.9 ± 1.1; in data set [1] (100 μM) it was 15.1 ± 0.3. The inhibition at 12.5 µM in data set [1] (12.5 μM) was determined as 18.5 ± 4%. Moreover, the inhibition at 25 µM in data set [1] (25 μM) is 27.1%. For the same molecule, in data set [1] (50 μM), the inhibition at 50 µM is 49.5%. Moreover, the inhibition at 100 µM in data set [1] (100 μM) was 66.7%. The molecule also showed an IC50 in data set [1] of 51.5 ± 0.5 µM. The “Cell viability (% of control)” value is 94.8 ± 3.1 % of control with RAW 264.7 cells [4] (12.5 μM), 83.7 ± 3.5 % of control in the data set on RAW 264.7 cells [4] (25 μM), 83.5 ± 3.0 % of control in the data set with RAW 264.7 cells [4] (50 μM) and 81.3 ± 2.8 % of control in the data set with RAW 264.7 cells [4] (100 μM).
With `CC(=O)OCC1CC23CCC4[C@@](C)(CCC[C@]4(C)C(=O)O)C2CCC1C3` (stereo partly drawn) [Compound 7, 17-acetoxy-16β-ent-kauran-19-oic acid], the NO level in data set [1] (12.5 μM) is reported as 42.6 ± 0.7; in data set [1] (25 μM), 40.6 ± 2.8; in data set [1] (50 μM) it was 23.7 ± 0.2; in data set [1] (100 μM) it was 14.3 ± 0.3. Also, the inhibition at 12.5 µM in data set [1] (12.5 μM) amounted to 6.2 ± 1.5%. The inhibition at 25 µM in data set [1] (25 μM) was 10.6%. Further, the inhibition at 50 µM in data set [1] (50 μM) was 47.7%. Besides, in data set [1] (100 μM), the inhibition at 100 µM is 68.5%. The molecule further came in with an IC50 in data set [1] of 55.5 ± 0.3 µM. Besides, the “Cell viability (% of control)” value is 98.6 ± 3.1 % of control with RAW 264.7 cells [4] (12.5 μM), 93.6 ± 4.0 % of control with RAW 264.7 cells [4] (25 μM), 92.5 ± 2.8 % of control in the data set with RAW 264.7 cells [4] (50 μM) and 83.7 ± 1.6 % of control in the data set on RAW 264.7 cells [4] (100 μM).
Consider `C[C@@]12CCC[C@](C)(C(=O)O)C1CCC13CC(CCC12)C(C(=O)O)C3` (stereo partly drawn) [Compound 8, 16α-hydro-ent-kauran-17,19-dioic acid], for which the melting point fell in the range of 120 to 121 °C. In addition, in data set [1] (12.5 μM), the NO level stood at 39.8 ± 1.2 and the inhibition at 12.5 µM turned out to be 12.3 ± 2.6%. Moreover, in data set [1] (25 μM), the NO level is listed as 35.4 ± 0.8 and the inhibition at 25 µM was 21.9%. Further, in data set [1] (50 μM), the NO level came to 23.5 ± 0.9 and the inhibition at 50 µM is 48.2%. Also, in data set [1] (100 μM), the NO level is listed as 14.4 ± 0.3 and the inhibition at 100 µM was 68.3%. The same molecule yielded an IC50 in data set [1] of 54.5 ± 0.8 µM. For the same molecule, in the data set with RAW 264.7 cells [4] (12.5 μM), the “Cell viability (% of control)” value is on record as 98.4 ± 3.2 % of control. The “Cell viability (% of control)” value in the data set on RAW 264.7 cells [4] (25 μM) is 94.0 ± 2.6 % of control. In addition, the “Cell viability (% of control)” value with RAW 264.7 cells [4] (50 μM) is recorded as 88.6 ± 2.6 % of control. The “Cell viability (% of control)” value with RAW 264.7 cells [4] (100 μM) is 82.4 ± 1.2 % of control.
With `COc1ccc([C@@H]2CC(=O)c3ccc(OC)cc3O2)cc1` [Compound 9, (2S)-di-O-methylquiritigenin], the NO level is listed as 42.0 ± 1.2 in data set [1] (12.5 μM), 40.4 ± 0.7 in data set [1] (25 μM) and 25.9 ± 2.3 in data set [1] (50 μM). Also, in data set [1] (12.5 μM), the inhibition at 12.5 µM was 7.5 ± 2.7%. Moreover, in data set [1] (25 μM), the inhibition at 25 µM was 11%. The inhibition at 50 µM in data set [1] (50 μM) was 42.9%. Besides, the “Inhibitory effect on NO production (in words)” value in data set [1] is “less obvious”. Also, the “Cell viability (% of control)” value with RAW 264.7 cells [4] (12.5 μM) is 99.9 ± 4.8 % of control; in the data set with RAW 264.7 cells [4] (25 μM), 90.0 ± 1.6 % of control; in the data set with RAW 264.7 cells [4] (50 μM), 82.6 ± 2.7 % of control; in the data set on RAW 264.7 cells [4] (100 μM), 76.2 ± 1.1 % of control. Moreover, the “Cell toxicity (in words)” value with RAW 264.7 cells [4] is recorded as “Some cell toxicity was observed”.
